Common to all, as to type: cell-based, mouse
Assay [1] has as its system C2C12 cells. The experiment in a line: BrdU cell proliferation assay (plate and slide). Conditions: for Effect of inhibitor on IGF-I induced proliferation: C2C12 BrdU plate assay, IGF-I 10 nM, PD 50 µM, NVP 100 nM. As to the method: Proliferation was measured using a 5-bromo-2P-deoxyuridine (BrdU) plate and slide assays (Roche, Indianapolis, IN). For the plate assay, 5×10^3 C2C12 cells were seeded in 96-well plates. Cells were starved for 6 hours, and treated with synthetic E-peptides or recombinant IGF-I overnight. BrdU was added for incorporation for 2 hours before cell lysis and BrdU staining. For MAPK inhibition, a MEK inhibitor was added to the media (PD 098059, Sigma, 50 µM). For IGF-IR inhibition, 100 nM NVPAEW541 was added to the media. The slide assay was done as above, except with 2×10^4 C2C12 cells in 24-well plates on glass cover slips. Cells were stained with an antibody to BrdU and with DAPI (VectorLabs, Burlingame, CA) to visualize nuclei. Images were acquired using a Leica DMR epifluorescence microscope using OpenLab imaging software (Improvision, PerkinElmer, Waltham, MA).

Assay [2] concerns ERK1/2 phosphorylation (MAPK signaling) in C2C12 cells. Put plainly: ERK1/2 phosphorylation immunoblot after synthetic E-peptide treatment. On the procedure: (§1) C2C12 (ATCC, Manassas, VA) cells were maintained in growth media (DMEM containing, 10% fetal bovine serum, and gentamicin). For signaling experiments, 2×10^4 cells were seeded in 6-well plates in growth media and allowed to attach and grow overnight. The next day, cells were starved overnight in growth media without serum. On the third day, cells were treated with synthetic E-peptides and/or recombinant human IGF-I (Gemini Bio-Products West Sacramento, CA) for the time periods indicated in figures, and the cells were processed for immunoblotting as described below. For IGF-IR inhibition, 100 nM NVPAEW541 [47] diluted in DMSO or DMSO only was added to starved cells 90 minutes before and during treatment with synthetic peptides.
(§2) Signaling pathway activation was determined by immunoblotting.

The test system of assay [3] is C2C12 cells. Put plainly: Transwell cell migration assay. Conditions: C2C12 trans-well, 5 hours, PD 50 µM, NVP 100 nM; for Effect of inhibitor on EB induced migration: EB 100 nM. As to the method:
E-peptide effects on cell migration were tested using a 24-well Transwell (8.0 µm pore size) plate assay (Corning Inc., Lowell, MA). C2C12 cells (2×10^4) were seeded in the upper chambers in serum-free media, and synthetic E-peptides in serum-free media were placed in the bottom chambers. Cells were allowed to migrate for 5 hours. Non-migrated cells remaining in the upper chamber were removed from the transwell membranes with Q-tips and migrated cells were fixed with 4% formaldehyde and stained with DAPI. The transwell membranes were mounted onto slides, and imaged at 10× using above-mentioned microscopy and analysis software. For MAPK signaling or IGF-IR inhibition, PD (50 µM) or NVP (100 nM) was added to both chambers at the start of the experiment.

Assay [4] concerns Akt phosphorylation in C2C12 cells. The experiment in a line: Akt phosphorylation immunoblot. The settings on record: C2C12, 20 min; EA 1 µM, EB 10 nM, IGF-I 10 nM. As to the method: as §1, §2

For `Nc1ncnc2c1c(-c1cccc(OCc3ccccc3)c1)cn2[C@H]1C[C@@H](CN2CCC2)C1` [NVP, NVPAEW541], the “Effect of inhibitor on IGF-I induced proliferation” value in the assay on C2C12 cells [1] was “significantly decreased IGF-I induced proliferation”. Further, in assay [2] (C2C12, NVP 100 nM 90 min before and during 20 min stimulation, EA 1 µM, EB 10 nM, IGF-I 10 nM, vs DMSO, N = 3), the “Effect of IGF-IR inhibitor on ERK1/2 phosphorylation in EA, EB and IGF-I treated cells” value is listed as “significantly reduced the ERK1/2 phosphorylation”. Also, in assay [2] (C2C12, NVP 100 nM vs DMSO, no stimulation), the “Effect of IGF-IR inhibitor on ERK1/2 phosphorylation in NoTx cells” value is “no change in ERK1/2 phosphorylation”. Moreover, in the assay on C2C12 cells [3], the “Effect of inhibitor on EB induced migration” value is “significantly decreased EB induced migration” and the “Effect of inhibitor on cell migration in the absence of E-peptides” value is given as “not affected”.
For the compound `COc1cccc(-c2cc(=O)c3ccccc3o2)c1N` [PD, PD 098059], in the assay on C2C12 cells [1], the “Effect of inhibitor on IGF-I induced proliferation” value is given as “significantly decreased IGF-I induced proliferation”. Also, in the assay with C2C12 cells [3], the “Effect of inhibitor on EB induced migration” value was “decrease in EB migration that did not reach significance” and the “Effect of inhibitor on cell migration in the absence of E-peptides” value is recorded as “not affected”.
On to “IGF-I: recombinant human IGF-I (Gemini Bio-Products), positive control”, for which the “Proliferation by BrdU positivity on slides (in words)” value with C2C12 cells [1] (C2C12 on cover slips, EA and Scr 100 nM, EB and IGF 10 nM, N = 5 slides) is reported as “increased C2C12 proliferation”. In assay [2] (C2C12, 20 min, EA 1 µM, EB 10 nM, IGF-I 10 nM, DMSO), the “P-ERK1/2 response (in words), without inhibitor” value is “increase in both P-Akt and P-ERK1/2”. Moreover, in assay [4], the “P-Akt response (in words)” value is “increase in both P-Akt and P-ERK1/2”.

The record behind these values is paper PMC3448668, “Insulin-Like Growth Factor-I E-Peptide Activity Is Dependent on the IGF-I Receptor” (PLoS ONE, 2012).
